pIC50: −log10 of the molar value.
Molecular target: T1, HCMV polymerase (Human cytomegalovirus, UniProt P08546)
T1 construct: made in house; host or cells: recombinant baculovirus-infected SF-9 cells
Experiment: HCMV polymerase scintillation proximity assay (SPA), modified version
Type: biochemical
Settings: CMV polymerase; Table 1; modified assay with 4.5 mM DTT, compounds in 100% DMSO; read-out: Antiviral Selective Polymerase IC50 Values, CMV
How it was run: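 Recombinant polymerase (baculovirus/SF-9) in 5.4 mM HEPES pH 7.5, 11.7 mM KCl, 4.5 mM MgCl2, 0.36 mg/ml BSA, 90 nM 3H-dTTP, ±2 mM CHAPS; started with 6 nM biotinylated poly(dA)-oligo(dT), 25° C or 37° C, EDTA-stopped in linear range (30 min for HCMV). Streptavidin-SPA read; IC50 by linear regression. Modified version: 100% DMSO compound dilution, 4.5 mM DTT added.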

T1 sequence (P08546 whole entry): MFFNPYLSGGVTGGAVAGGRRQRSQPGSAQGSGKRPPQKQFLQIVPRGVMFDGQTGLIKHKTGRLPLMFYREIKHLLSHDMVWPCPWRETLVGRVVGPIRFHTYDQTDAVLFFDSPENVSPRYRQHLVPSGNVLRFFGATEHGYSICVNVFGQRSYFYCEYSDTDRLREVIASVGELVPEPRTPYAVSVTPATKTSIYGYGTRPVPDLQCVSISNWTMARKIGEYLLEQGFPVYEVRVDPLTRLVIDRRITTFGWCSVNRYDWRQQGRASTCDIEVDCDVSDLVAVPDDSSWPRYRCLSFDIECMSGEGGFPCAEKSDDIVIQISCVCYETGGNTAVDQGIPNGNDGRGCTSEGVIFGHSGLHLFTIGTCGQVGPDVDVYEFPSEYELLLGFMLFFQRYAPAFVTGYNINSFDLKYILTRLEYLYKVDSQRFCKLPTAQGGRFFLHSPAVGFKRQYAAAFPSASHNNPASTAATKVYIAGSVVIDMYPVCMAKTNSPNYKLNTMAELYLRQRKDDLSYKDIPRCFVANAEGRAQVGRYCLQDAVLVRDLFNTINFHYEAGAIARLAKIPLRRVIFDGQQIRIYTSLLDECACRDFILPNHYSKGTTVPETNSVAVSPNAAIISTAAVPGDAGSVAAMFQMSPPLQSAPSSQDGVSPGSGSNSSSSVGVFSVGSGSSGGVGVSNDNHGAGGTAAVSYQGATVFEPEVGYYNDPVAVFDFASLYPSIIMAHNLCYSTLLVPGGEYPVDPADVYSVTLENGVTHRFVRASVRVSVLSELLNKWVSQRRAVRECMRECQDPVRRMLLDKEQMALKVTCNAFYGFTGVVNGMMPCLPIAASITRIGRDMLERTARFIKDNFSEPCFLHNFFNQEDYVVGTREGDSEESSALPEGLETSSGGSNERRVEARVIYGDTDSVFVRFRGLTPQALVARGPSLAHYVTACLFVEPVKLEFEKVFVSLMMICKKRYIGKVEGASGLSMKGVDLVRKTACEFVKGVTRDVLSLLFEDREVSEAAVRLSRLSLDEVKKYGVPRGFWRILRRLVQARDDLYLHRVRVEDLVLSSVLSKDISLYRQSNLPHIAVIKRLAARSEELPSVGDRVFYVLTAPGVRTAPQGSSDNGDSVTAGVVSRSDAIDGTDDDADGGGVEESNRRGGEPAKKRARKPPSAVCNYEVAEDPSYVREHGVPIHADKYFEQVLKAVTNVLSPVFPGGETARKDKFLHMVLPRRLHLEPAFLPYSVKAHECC

| SMILES | pIC50 |
| --- | --- |
| CCOC(=O)CNS(=O)(=O)c1cc(F)c2ncc(C(=O)NCc3ccc(Cl)cc3)c(O)c2c1 [Example 196, Ethyl 2-{[(3-{[(4-chlorobenzyl)amino]carbonyl}-8-fluoro-4-hydroxy-6-quinolinyl)sulfonyl]amino) acetate] | 4.71 |
| O=C(NCc1ccc(Cl)cc1)c1cnc2c(F)cc(S(=O)(=O)NCCO)cc2c1O [Example 197, N-(4-Chlorobenzyl)-8-fluoro-4-hydroxy-6-{[(2-hydroxyethyl)amino]-sulfonyl}-3-quinolinecarboxamide] | 4.71 |
| O=C(NCc1ccc(Cl)cc1)c1cnc2c(F)cc(S(=O)(=O)N3CCOCC3)cc2c1O [Example 198, N-(4-Chlorobenzyl)-8-fluoro-4-hydroxy-6-(4-morpholinylsulfonyl)-3-quinolinecarboxamide] | 4.68 |
| O=C(NCc1ccc(Cl)cc1)c1cnc2c(F)cc(S(=O)(=O)NCc3ccccn3)cc2c1O [Example 199, N-(4-Chlorobenzyl)-8-fluoro-4-hydroxy-6-{[(2-pyridinylmethyl)amino]-sulfonyl}-3-quinolinecarboxamide] | 4.58 |
| O=C(NCc1ccc(Cl)cc1)c1cnc2c(F)cc(S(=O)(=O)Nc3ccccn3)cc2c1O [Example 200, N-(4-Chlorobenzyl)-8-fluoro-4-hydroxy-6-[(2-pyridinylamino)-sulfonyl]-3-quinolinecarboxamide] | 4.41 |
| CN1CCCC1CCNS(=O)(=O)c1cc(F)c2ncc(C(=O)NCc3ccc(Cl)cc3)c(O)c2c1 (centres unmarked) [Example 202, N-(4-chlorobenzyl)-8-fluoro-4-hydroxy-6-({[2-(1-methyl-2-pyrrolidinyl)ethyl]amino}sulfonyl)-3-quinolinecarboxamide] | ≤ 4.30 |
| O=C(NCc1ccc(Cl)cc1)c1cnc2c(F)cc(S(=O)(=O)NCCN3CCCC3)cc2c1O [Example 203, N-(4-chlorobenzyl)-8-fluoro-4-hydroxy-6-({[2-(1-pyrrolidinyl)ethyl]amino}sulfonyl)-3-quinolinecarboxamide] | 4.41 |
| O=C(NCc1ccc(Cl)cc1)c1cnc2c(F)cc(S(=O)(=O)NCCCNC3CCCCC3)cc2c1O [Example 205, N-(4-chlorobenzyl)-6-({[3-(cyclohexylamino)propyl]amino}sulfonyl)-8-fluoro-4-hydroxy-3-quinolinecarboxamide] | ≤ 4.30 |

The next compounds have a higher pIC50 than those just listed; values first:

| pIC50 | SMILES |
| --- | --- |
| 4.74 | O=C(NCc1ccc(Cl)cc1)c1cnc2c(F)cc(S(=O)(=O)N(CCO)CCO)cc2c1O [Example 195, 6-{[Bis(2-hydroxyethyl)amino]sulfonyl}-N-(4-chlorobenzyl)-8-fluoro-4-hydroxy-3-quinolinecarboxamide] |
| 4.82 | O=C(NCc1ccc(Cl)cc1)c1cnc2c(F)cc(S(=O)(=O)NCc3ccco3)cc2c1O [Example 194, N-(4-Chlorobenzyl)-8-fluoro-6-{[(2-furylmethyl)amino]sulfonyl}-4-hydroxy-3-quinolinecarboxamide] |
| 4.86 | O=C(NCc1ccc(Cl)cc1)c1cnc2c(F)cc(S(=O)(=O)NCc3ccco3)cc2c1O [Example 204, N-(4-chlorobenzyl)-8-fluoro-6-{[(2-furylmethyl)amino]sulfonyl}-4-hydroxy-3-quinolinecarboxamide] |
| 5.22 | O=C(NCc1ccc(Cl)cc1)c1cnc2c(F)cc(S(=O)(=O)NCC3CCCCC3)cc2c1O [Example 201, N-(4-chlorobenzyl)-6-{[(cyclohexylmethyl)amino]sulfonyl}-8-fluoro-4-hydroxy-3-quinolinecarboxamide] |
| 5.57 | O=C(NCc1ccc(Cl)cc1)c1cnc2c(F)cc(S(=O)(=O)NCCc3c[nH]c4ccccc34)cc2c1O [Example 193, N-(4-Chlorobenzyl)-8-fluoro-4-hydroxy-6-({[2-(1H-indol-3-yl)ethyl]-amino)sulfonyl)-3-quinolinecarboxamide] |
| 5.62 | O=C(NCc1ccc(Cl)cc1)c1cnc2c(F)cc(S(=O)(=O)NCc3cccc4ccccc34)cc2c1O [Example 206, N-(4-chlorobenzyl)-8-fluoro-4-hydroxy-6-{[(1-naphthylmethyl)amino]sulfonyl}-3-quinolinecarboxamide] |

— US6093732A, “4-hydroxyquinoline-3-carboxamides and hydrazides as antiviral agents” (Pharmacia & Upjohn Company, priority 1998, dated 2000)
